We go through 21 substances from patent US6849612B2, “Oligonucleotide modulation of cell adhesion” (ISIS Pharmaceuticals, Inc., priority 1993, dated 2005).

What is called IC50 is the point on the concentration scale where inhibition reaches its midpoint.

The test system of data set [1] is ELAM-1. Nature of the data set: ELISA of ELAM-1 expression in TNF-stimulated HUVEC. The settings on record: for ELAM-1 expression (% of control) / IC50: HUVEC; for ELAM-1 expression (% of control): TNF-α […] 4 hours; for IC50: TNF-α, read-out: IC50 for inhibition of ELAM-1 expression (asterisk); for inhibition of ELAM-1 expression: TNF-treated HUVEC. The class given is cell-based, human. The procedure: (§1) Primary human umbilical vein endothelial (HUVEC) cells, passage 2 to 5, were plated in 96-well plates and allowed to reach confluence. Cells were washed three times with Opti-MEM (GIBCO, Grand Island N.Y.). Cells were treated with increasing concentrations of oligonucleotide diluted in Opti-MEM containing 10 μg/ml DOTMA solution (Bethesda Research Labs, Bethesda, Md.) for 4 hours at 370C. The medium was removed and replaced with EGM-UV (Clonetics, San Diego Calif.) plus oligonucleotide. Tumor necrosis factor α was added to the medium (2.5 ng/ml) and the cells were incubated an additional 4 hours at 37° C.
(§2) ELAM-1 expression was determined by ELISA. Cells were gently washed three times with Dulbecco's phosphate-buffered saline (D-PBS) prewarmed to 37° C. Cells were fixed with 95% ethanol at 4° C. for 20 minutes, washed three times with D-PBS and blocked with 2% BSA in D-PBS. Cells were incubated with ELAM-1 monoclonal antibody BBA-1 (R&D Systems, Minneapolis Minn.) diluted to 0.5 μg/ml in D-PBS containing 2% BSA for 1 hour at 37° C. Cells were washed three times with D-PBS and the bound ELAM-1 antibody detected with biotinylated goat anti-mouse secondary antibody followed by β-galactosidase-conjugated streptavidin as described in Example 1.
ELISA screening of additional antisense oligonucleotides for activity against ELAM-1 gene expression Inhibition of ELAM-1 expression by eighteen antisense phosphorothioate oligonucleotides was determined using the ELISA assay as described in Example 12.
A general note: In an ELISA, binding on a coated surface is turned into a signal by an enzyme label.

Data set [2] has as its system VCAM-1. The data set can be described thus: ELISA of VCAM-1 expression in TNF-stimulated HUVEC. Particulars: for VCAM-1 EXPRESSION 30 nM oligo (VCAM-1 expression is given as % of control) / VCAM-1 EXPRESSION 50 nM oligo (VCAM-1 expression is given as % of control): TNF-α 16 hours; for IC50: TNF-α, read-out: IC50 for inhibition of VCAM-1 expression (asterisk). Type of data set: cell-based, human. The procedure: as §1, §2
Inhibition of VCAM-1 expression by fifteen antisense phosphorothioate oligonucleotides was determined using the ELISA assay approximately as described in Example 12, except that cells were stimulated with TNF-àfor 16 hours and VCAM-1 expression was detected by a VCAM-1 specific monoclonal antibody (R & D Systems, Minneapolis, Minn.) used at 0.5 μg/ml.

Strand notation (5' to 3'): a small letter for the sugar, then the base; units joined by * are phosphorothioate-linked, units joined directly phosphodiester-linked; [ ] holds rarer units or linkages, { } end groups; capitals alone tell only the bases. d = 2'-deoxy (DNA)

In the case of “ISIS 2670: P=S, human ELAM-1 3′-UTR 3717-3736, SEQ ID NO 29, ACCACACTGGTATTTCACAC (antisense dA*dC*dC*dA*dC*dA*dC*dT*dG*dG*dT*dA*dT*dT*dT*dC*dA*dC*dA*dC)”, the “ELAM-1 expression (% of control)” value is 72.2 % of control in data set [1] (30 nM oligo) and 67.2 % of control in data set [1] (50 nM oligo).

As for “ISIS 2673: P=S, human ELAM-1 3′-UTR 2656-2676, SEQ ID NO 30, GTATGGAAGATTATAATATAT (antisense dG*dT*dA*dT*dG*dG*dA*dA*dG*dA*dT*dT*dA*dT*dA*dA*dT*dA*dT*dA*dT)”, the figures for the “ELAM-1 expression (% of control)” value in data set [1] (30 nM oligo) and in data set [1] (50 nM oligo) were 58.9 % of control and 53.8 % of control, respectively.

As to “ISIS 2674: P=S, human ELAM-1 3′-UTR 2617-2637, SEQ ID NO 31, CACAATCCTTAAGAACTCTTT (antisense dC*dA*dC*dA*dA*dT*dC*dC*dT*dT*dA*dA*dG*dA*dA*dC*dT*dC*dT*dT*dT)”, the “ELAM-1 expression (% of control)” value was 33.5 % of control in data set [1] (30 nM oligo) and 28.1 % of control in data set [1] (50 nM oligo). In data set [1], the IC50 was not above 50 nM.

On to “ISIS 2678: P=S, human ELAM-1 3′-UTR 3557-3576, SEQ ID NO 32, ACCTCTGCTGTTCTGATCCT (antisense dA*dC*dC*dT*dC*dT*dG*dC*dT*dG*dT*dT*dC*dT*dG*dA*dT*dC*dC*dT)”, for which the figures for the “ELAM-1 expression (% of control)” value in data set [1] (30 nM oligo) and in data set [1] (50 nM oligo) were 24.9 % of control and 15.3 % of control, respectively. The IC50 in data set [1] was not above 50 nM.

For “ISIS 2679: P=S, human ELAM-1 5′-UTR 40-59, SEQ ID NO 33, CTGCTGCCTCTGTCTCAGGT (antisense dC*dT*dG*dC*dT*dG*dC*dC*dT*dC*dT*dG*dT*dC*dT*dC*dA*dG*dG*dT)”, the “ELAM-1 expression (% of control)” value in data set [1] (30 nM oligo) is 6.4 % of control. In addition, the “ELAM-1 expression (% of control)” value in data set [1] (50 nM oligo) is listed as 6.0 % of control. In data set [1], the 50% inhibitory concentration (IC50) is not above 50 nM and the “inhibition of ELAM-1 expression” value was “most potent”.

As to “ISIS 2683: P=S, human ELAM-1 AUG 143-163, SEQ ID NO 35, AATCATGACTTCAAGAGTTCT (antisense dA*dA*dT*dC*dA*dT*dG*dA*dC*dT*dT*dC*dA*dA*dG*dA*dG*dT*dT*dC*dT)”, the “ELAM-1 expression (% of control)” value in data set [1] (30 nM oligo) is on record as 47.9 % of control; in data set [1] (50 nM oligo) it was 48.5 % of control. Besides, the IC50 in data set [1] was not above 50 nM.

For the substance “ISIS 2686: P=S, human ELAM-1 AUG 148-168, SEQ ID NO 36, TGAAGCAATCATGACTTCAAG (antisense dT*dG*dA*dA*dG*dC*dA*dA*dT*dC*dA*dT*dG*dA*dC*dT*dT*dC*dA*dA*dG)”, the “ELAM-1 expression (% of control)” value in data set [1] (30 nM oligo) is recorded as 51.1 % of control; in data set [1] (50 nM oligo), 46.9 % of control. For the same substance, the half-inhibitory concentration (IC50) in data set [1] is not above 50 nM.

For “ISIS 2687: P=S, human ELAM-1 5′-UTR 17-36, SEQ ID NO 37, TATAGGAGTTTTGATGTGAA (antisense dT*dA*dT*dA*dG*dG*dA*dG*dT*dT*dT*dT*dG*dA*dT*dG*dT*dG*dA*dA)”, the figures for the “ELAM-1 expression (% of control)” value in data set [1] (30 nM oligo) and in data set [1] (50 nM oligo) were 91.1 % of control and 73.8 % of control, respectively. The “inhibition of ELAM-1 expression” value in data set [1] is on record as “did not show significant activity”.

On to “ISIS 2694: P=S, human ELAM-1 3′-UTR 2933-2953, SEQ ID NO 39, GACAATATACAAACCTTCCAT (antisense dG*dA*dC*dA*dA*dT*dA*dT*dA*dC*dA*dA*dA*dC*dC*dT*dT*dC*dC*dA*dT)”, for which the results for the “ELAM-1 expression (% of control)” value in data set [1] (30 nM oligo) and in data set [1] (50 nM oligo) were 72.0 % of control and 64.6 % of control, respectively.

Turning to “ISIS 3791: phosphorothioate, human VCAM-1 5′UTR 38-58, SEQ ID NO 61, CCTGGGAGGGTATTCAGCT (antisense dG*dC*dC*dT*dG*dG*dG*dA*dG*dG*dG*dT*dA*dT*dT*dC*dA*dG*dC*dT)”, in data set [2], the “VCAM-1 EXPRESSION 30 nM oligo (VCAM-1 expression is given as % of control)” value was 92.6 % of control and the “VCAM-1 EXPRESSION 50 nM oligo (VCAM-1 expression is given as % of control)” value was 58.0 % of control.

With “ISIS 3792: phosphorothioate, human VCAM-1 AUG 110-129, SEQ ID NO 63, GGCATTTTAAGTTGCTGTCG (DNA, all phosphorothioate, methylation of C not given here)”, in data set [2], the “VCAM-1 EXPRESSION 30 nM oligo (VCAM-1 expression is given as % of control)” value is reported as 68.7 % of control, the “VCAM-1 EXPRESSION 50 nM oligo (VCAM-1 expression is given as % of control)” value was 33.7 % of control and the concentration for half-maximal inhibition (IC50) is not above 50 nM.

In the case of “ISIS 3794: phosphorothioate, human VCAM-1 TERMIN. 2344-2362, SEQ ID NO 69, TGAACATATCAAGCATTAGC (DNA, all phosphorothioate, methylation of C not given here)”, in data set [2], the “VCAM-1 EXPRESSION 30 nM oligo (VCAM-1 expression is given as % of control)” value is 75.3 % of control and the “VCAM-1 EXPRESSION 50 nM oligo (VCAM-1 expression is given as % of control)” value is recorded as 52.6 % of control.

In the case of “ISIS 3800: phosphorothioate, human VCAM-1 3′-UTR 2620-2639, SEQ ID NO 70, GCAATCTTGCTATGGCATAA (DNA, all phosphorothioate, methylation of C not given here)”, in data set [2], the “VCAM-1 EXPRESSION 30 nM oligo (VCAM-1 expression is given as % of control)” value was 64.4 % of control, the “VCAM-1 EXPRESSION 50 nM oligo (VCAM-1 expression is given as % of control)” value was 47.7 % of control and the IC50 was not above 50 nM.

For “ISIS 4719: phosphorothioate, human ELAM-1 3′-UTR 2993-3012, SEQ ID NO 58, ACGTTTGGCCTCATGGAAGT (antisense dA*dC*dG*dT*dT*dT*dG*dG*dC*dC*dT*dC*dA*dT*dG*dG*dA*dA*dG*dT)”, the “ELAM-1 expression (% of control)” value is 36.8 % of control in data set [1] (30 nM oligo) and 34.7 % of control in data set [1] (50 nM oligo). For the same substance, in data set [1], the concentration for half-maximal inhibition (IC50) is not above 50 nM.

With “ISIS 4720: phosphorothioate, human ELAM-1 3′-UTR 3093-3112, SEQ ID NO 59, GGAATGCAAAGCACATCCAT (antisense dG*dG*dA*dA*dT*dG*dC*dA*dA*dA*dG*dC*dA*dC*dA*dT*dC*dC*dA*dT)”, the figures for the “ELAM-1 expression (% of control)” value in data set [1] (30 nM oligo) and in data set [1] (50 nM oligo) were 63.5 % of control and 70.6 % of control, respectively.

For the substance “ISIS 4729: phosphorothioate, human ELAM-1 3′-UTR 2063-2082, SEQ ID NO 57, GGGCCAGAGACCCGAGGAGA (antisense dG*dG*dG*dC*dC*dA*dG*dA*dG*dA*dC*dC*dC*dG*dA*dG*dG*dA*dG*dA)”, the “ELAM-1 expression (% of control)” value in data set [1] (30 nM oligo) is given as 49.4 % of control; in data set [1] (50 nM oligo), 46.3 % of control. The half-maximal inhibitory concentration (IC50) in data set [1] was not above 50 nM.

Turning to “ISIS 4730: phosphorothioate, human ELAM-1 I/E 3′UTR 2006-2025, SEQ ID NO 56, TCCCCAGATGCACCTGTTT (antisense dT*dT*dC*dC*dC*dC*dA*dG*dA*dT*dG*dC*dA*dC*dC*dT*dG*dT*dT*dT)”, the “ELAM-1 expression (% of control)” value in data set [1] (30 nM oligo) was 14.1 % of control; in data set [1] (50 nM oligo), 2.3 % of control. In addition, in data set [1], the concentration for half-maximal inhibition (IC50) is not above 50 nM.

In the case of “ISIS 4732: phosphorothioate, human ELAM-1 Coding 1936-1955, SEQ ID NO 55, CTGATTCAAGGCTTTGGCAG (antisense dC*dT*dG*dA*dT*dT*dC*dA*dA*dG*dG*dC*dT*dT*dT*dG*dG*dC*dA*dG)”, the “ELAM-1 expression (% of control)” value was 68.5 % of control in data set [1] (30 nM oligo) and 55.3 % of control in data set [1] (50 nM oligo).

“ISIS 4756: phosphorothioate, human ELAM-1 I/E 177-196, SEQ ID NO 54, CCAAAGTGAGAGCTGAGAGA (antisense dC*dC*dA*dA*dA*dG*dT*dG*dA*dG*dA*dG*dC*dT*dG*dA*dG*dA*dG*dA)”: the “ELAM-1 expression (% of control)” value was 53.9 % of control in data set [1] (30 nM oligo) and 35.7 % of control in data set [1] (50 nM oligo). The concentration for half-maximal inhibition (IC50) in data set [1] was not above 50 nM.

On to “ISIS 4759: phosphorothioate, human ELAM-1 5′-UTR 64-83, SEQ ID NO 53, ACAGGATCTCTCAGGTGGGT (antisense dA*dC*dA*dG*dG*dA*dT*dC*dT*dC*dT*dC*dA*dG*dG*dT*dG*dG*dG*dT)”, for which the “ELAM-1 expression (% of control)” value in data set [1] (30 nM oligo) was 30.0 % of control; in data set [1] (50 nM oligo) it was 20.2 % of control. The concentration for half-maximal inhibition (IC50) in data set [1] was not above 50 nM.

On to “ISIS 4764: phosphorothioate, human ELAM-1 5′-UTR 1-19, SEQ ID NO 52, GAAGTCAGCCAAGAACAGCT (antisense dG*dA*dA*dG*dT*dC*dA*dG*dC*dC*dA*dA*dG*dA*dA*dC*dA*dG*dC*dT)”, for which the “ELAM-1 expression (% of control)” value is 70.2 % of control in data set [1] (30 nM oligo) and 50.2 % of control in data set [1] (50 nM oligo). Also, in data set [1], the concentration for half-maximal inhibition (IC50) was not above 50 nM.
